From patent publication US11730720B2, “ALK5 inhibitors” (THERAVANCE BIOPHARMA R&D IP, LLC, priority 2018, dated 2023)

Assays:
[1] = system: TGF-β-stimulated SMAD3 phosphorylation in BEAS-2B cells; assay: Cellular ALK5 potency assay, inhibition of TGF-β stimulated pSMAD3 formation in BEAS-2B cells; assay type: cell-based; conditions: Homo sapiens, inhibition of TGF-β (10 ng/mL) stimulated pSMAD3 formation, 1 hour compound incubation, read-out: BEAS2B pIC50 (converted)
How it was run: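 Phospho-SMAD3 was quantified by AlphaLISA in lysates of human lung epithelial BEAS-2B cells. Compound was added 1 h (37 °C, HEPES/BSA-supplemented HBSS) before a 30 min challenge with 10 ng/mL TGF-β. Values are pIC50 relative to stimulated cells without compound.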

[2] = target: T1, recombinant human ALK5 (TGF-βR1) protein (Homo sapiens, UniProt P36897); assay: Biochemical ALK5 (TGF-βR1) assay to measure pKi (LANCE Ultra ULight kinase assay); conditions: apparent pKi, converted from pIC50 using the Cheng-Prusoff equation
T1 construct: purchased Life Technologies PR9075A
T1 sequence (P36897 34-503): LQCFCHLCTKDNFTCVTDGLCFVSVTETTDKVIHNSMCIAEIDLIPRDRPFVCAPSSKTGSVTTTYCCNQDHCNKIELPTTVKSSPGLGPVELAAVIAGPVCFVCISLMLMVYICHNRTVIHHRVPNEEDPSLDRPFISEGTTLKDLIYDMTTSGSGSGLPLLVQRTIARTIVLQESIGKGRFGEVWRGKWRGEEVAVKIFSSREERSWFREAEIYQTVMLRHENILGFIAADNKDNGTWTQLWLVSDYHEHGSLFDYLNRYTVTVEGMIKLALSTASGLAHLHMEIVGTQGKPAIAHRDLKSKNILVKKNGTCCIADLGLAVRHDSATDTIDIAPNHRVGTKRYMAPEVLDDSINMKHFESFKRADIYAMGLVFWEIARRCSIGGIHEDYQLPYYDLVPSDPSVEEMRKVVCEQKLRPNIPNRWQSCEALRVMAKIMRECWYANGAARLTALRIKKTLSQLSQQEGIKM
How it was run: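 TR-FRET kinase format: compound dose range 10 μM–25 pM equilibrated 60 min with human ALK5 and ULight-labelled topoisomerase 2α peptide in HEPES/MgCl2 buffer pH 7.5 with DTT. Reaction started with ATP (125 μM stock, 5× final), 60 min at 37° C, stopped with EDTA/Eu-anti-phospho antibody; pKi derived from pIC50 via Cheng-Prusoff.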

## Fc1ccc(Cl)cc1-c1n[nH]cc1-c1ccc2ncc(-c3cnn(CC4CNC4)c3)cc2n1 [Compound 1-88, 7-[1-(azetidin-3-ylmethyl)pyrazol-4-yl]-2-[3-(5-chloro-2-fluoro-phenyl)-1H-pyrazol-4-yl]-1,5-naphthyridine]
[1]
  IC50: 25.1 to 158 nM
[2]
  Ki: 0.0398 to 0.316 nM

## NCCn1cc(-c2cnc3ccc(-c4c[nH]nc4-c4cc(Cl)ccc4F)nc3c2)cn1 [Compound 1-89, 2-[4-[6-[3-(5-chloro-2-fluoro-phenyl)-1H-pyrazol-4-yl]-1,5-naphthyridin-3-yl]pyrazol-1-yl]ethanamine]
[1]
  IC50: 25.1 to 158 nM
[2]
  Ki: ≤ 0.0316 nM

## Cn1cccc(-c2cnc3ccc(-c4c[nH]nc4-c4cc(Cl)ccc4F)nc3c2)c1=O [Compound 1-90, 3-(6-(3-(5-chloro-2-fluorophenyl)-112-pyrazol-4-yl)-1,5-naphthyridin-3-yl)-1-methylpyridin-2(1H)-one]
[1]
  IC50: ≤ 20 nM
[2]
  Ki: 0.0398 to 0.316 nM

## NC1CC=C(c2cnc3ccc(-c4c[nH]nc4-c4cc(Cl)ccc4F)nc3c2)CC1 (stereo not drawn) [Compound 1-91, 4-(6-(3-(5-chloro-2-fluorophenyl)-1H-pyrazol-4-yl)-1,5-naphthyridin-3-yl)cyclohex-3-en-1-amine]
[1]
  IC50: ≤ 20 nM
[2]
  Ki: 0.0398 to 0.316 nM

## CNCCn1ccc(-c2cnc3ccc(-c4c[nH]nc4-c4cc(Cl)ccc4F)nc3c2)n1 [Compound 1-92, 2-[3-[6-[3-(5-chloro-2-fluoro-phenyl)-1H-pyrazol-4-yl]-1,5-naphthyridin-3-yl]pyrazol-1-yl]-N-methyl-ethanamine]
[1]
  IC50: ≤ 20 nM
[2]
  Ki: 0.0398 to 0.316 nM

## Fc1ccc(Cl)cc1-c1n[nH]cc1-c1ccc2ncc(C3=CCNC3)cc2n1 [Compound 1-93, 2-[3-(5-chloro-2-fluoro-phenyl)-1H-pyrazol-4-yl]-7-(2,5-dihydro-1H-pyrrol-3-yl)-1,5-naphthyridine]
[1]
  IC50: ≤ 20 nM
[2]
  Ki: 0.0398 to 0.316 nM

## CC(C)NCCn1cc(-c2cnc3ccc(-c4c[nH]nc4-c4cc(Cl)ccc4F)nc3c2)cn1 [Compound 1-94, N-(2-(4-(6-(3-(5-chloro-2-fluorophenyl)-1H-pyrazol-4-yl)-1,5-naphthyridin-3-yl)-1H-pyrazol-1-yl)ethyl)propan-2-amine]
[1]
  IC50: 25.1 to 158 nM
[2]
  Ki: ≤ 0.0316 nM

## Fc1ccc(Cl)cc1-c1n[nH]cc1-c1ccc2ncc(-c3cnn(CCNCc4ccccc4)c3)cc2n1 [Compound 1-95, N-benzyl-2-[4-[6-[3-(5-chloro-2-fluoro-phenyl)-1H-pyrazol-4-yl]-1,5-naphthyridin-3-yl]pyrazol-1-yl]ethanamine]
[1]
  IC50: 25.1 to 158 nM
[2]
  Ki: 0.0398 to 0.316 nM

## CN(C)C1CC=C(c2cnc3ccc(-c4c[nH]nc4-c4cc(Cl)ccc4F)nc3c2)CC1 (stereo not drawn) [Compound 1-96, 4-(6-(3-(5-chloro-2-fluorophenyl)-1H-pyrazol-4-yl)-1,5-naphthyridin-3-yl)-N,N-dimethylcyclohex-3-en-1-amine]
[1]
  IC50: ≤ 20 nM
[2]
  Ki: ≤ 0.0316 nM

## CN1CC=C(c2cnc3ccc(-c4c[nH]nc4-c4cc(Cl)ccc4F)nc3c2)C1 [Compound 1-97, 2-[3-(5-chloro-2-fluoro-phenyl)-1H-pyrazol-4-yl]-7-(1-methyl-2,5-dihydropyrrol-3-yl)-1,5-naphthyridine]
[1]
  IC50: ≤ 20 nM
[2]
  Ki: ≤ 0.0316 nM

## NC1CCC(c2cnc3ccc(-c4c[nH]nc4-c4cc(Cl)ccc4F)nc3c2)CC1 (stereo not drawn) [Compound 1-98, 4-(6-(3-(5-chloro-2-fluorophenyl)-1H-pyrazol-4-yl)-1,5-naphthyridin-3-yl)cyclohexan-1-amine]
[1]
  IC50: 200 to 1260 nM
[2]
  Ki: 3.98 to 31.6 nM

## Fc1ccc(Cl)cc1-c1n[nH]cc1-c1ccc2ncc(C3CCNC3)cc2n1 (stereo not drawn) [Compound 1-99, 2-[3-(5-chloro-2-fluoro-phenyl)-1H-pyrazol-4-yl]-7-pyrrolidin-3-yl-1,5-naphthyridine]
[1]
  IC50: 200 to 1260 nM
[2]
  Ki: 3.98 to 31.6 nM

## Fc1ccc(Cl)cc1-c1n[nH]cc1-c1ccc2ncc(-c3nc4n(n3)CCNC4)cc2n1 [Compound 1-100, 2-(3-(5-chloro-2-fluorophenyl)-1H-pyrazol-4-yl)-7-(5,6,7,8-tetrahydro-[1,2,4]triazolo[1,5-a]pyrazin-2-yl)-1,5-naphthyridine]
[1]
  IC50: 25.1 to 158 nM
[2]
  Ki: 0.0398 to 0.316 nM

## O=Cc1cnc2ccc(-c3c[nH]nc3-c3cc(Cl)ccc3F)nc2c1 [Compound 1-101, 6-[3-(5-chloro-2-fluoro-phenyl)-1H-pyrazol-4-yl]-1,5-naphthyridine-3-carbaldehyde]
[1]
  IC50: ≤ 20 nM
[2]
  Ki: 0.398 to 3.16 nM

## Oc1cnc2ccc(-c3c[nH]nc3-c3cc(Cl)ccc3F)nc2c1 [Compound 1-102, 6-[3-(5-chloro-2-fluoro-phenyl)-1H-pyrazol-4-yl]-1,5-naphthyridin-3-ol]
[1]
  IC50: ≤ 20 nM
[2]
  Ki: 0.398 to 3.16 nM

## CCOC(=O)Cn1cc(-c2cnc3ccc(-c4c[nH]nc4-c4cc(Cl)ccc4F)nc3c2)nn1 [Compound 1-103, ethyl 2-[4-[6-[3-(5-chloro-2-fluoro-phenyl)-1H-pyrazol-4-yl]-1,5-naphthyridin-3-yl]triazol-1-yl]acetate]
[1]
  IC50: 25.1 to 158 nM
[2]
  Ki: ≤ 0.0316 nM

## COC(=O)c1coc(-c2cnc3ccc(-c4c[nH]nc4-c4cc(Cl)ccc4F)nc3c2)n1 [Compound 1-104, methyl 2-[6-[3-(5-chloro-2-fluoro-phenyl)-1H-pyrazol-4-yl]-1,5-naphthyridin-3-yl]oxazole-4-carboxylate]
[1]
  IC50: 25.1 to 158 nM
[2]
  Ki: 0.398 to 3.16 nM

## NC(=O)c1coc(-c2cnc3ccc(-c4c[nH]nc4-c4cc(Cl)ccc4F)nc3c2)n1 [Compound 1-105, 2-[6-[3-(5-chloro-2-fluoro-phenyl)-1H-pyrazol-4-yl]-1,5-naphthyridin-3-yl]oxazole-4-carboxamide]
[1]
  IC50: 25.1 to 158 nM
[2]
  Ki: 0.0398 to 0.316 nM

## Fc1ccc(Cl)cc1-c1n[nH]cc1-c1ccc2ncc(-c3cnc4n3CCN4)cc2n1 [Compound 1-106, 2-[3-(5-chloro-2-fluoro-phenyl)-1H-pyrazol-4-yl]-7-(6,7-dihydro-5H-imidazo[1,2-a]imidazol-3-yl)-1,5-naphthyridine]
[1]
  IC50: 25.1 to 158 nM
[2]
  Ki: ≤ 0.0316 nM

## Fc1ccc(Cl)cc1-c1n[nH]cc1-c1ccc2ncc(-c3cnc4n3CCNC4)cc2n1 [Compound 1-107, 2-[3-(5-chloro-2-fluoro-phenyl)-1H-pyrazol-4-yl]-7-(5,6,7,8-tetrahydroimidazo[1,2-a]pyrazin-3-yl)-1,5-naphthyridine]
[1]
  IC50: 25.1 to 158 nM
[2]
  Ki: 0.0398 to 0.316 nM

## Fc1ccc(Cl)cc1-c1n[nH]cc1-c1ccc2ncc(-c3cnn4c3CNCC4)cc2n1 [Compound 1-108, 2-[3-(5-chloro-2-fluoro-phenyl)-1H-pyrazol-4-yl]-7-(4,5,6,7-tetrahydropyrazolo[1,5-a]pyrazin-3-yl)-1,5-naphthyridine]
[1]
  IC50: ≤ 20 nM
[2]
  Ki: ≤ 0.0316 nM

## Fc1ccc(Cl)cc1-c1n[nH]cc1-c1ccc2ncc(-c3nnn4c3CNCC4)cc2n1 [Compound 1-109, 2-[3-(5-chloro-2-fluoro-phenyl)-1H-pyrazol-4-yl]-7-(4,5,6,7-tetrahydrotriazolo[1,5-a]pyrazin-3-yl)-1,5-naphthyridine]
[1]
  IC50: 25.1 to 158 nM
[2]
  Ki: 0.0398 to 0.316 nM

## Fc1ccc(Cl)cc1-c1n[nH]cc1-c1ccc2ncc(-c3nnc4n3CCN4)cc2n1 [Compound 1-110, 2-[3-(5-chloro-2-fluoro-phenyl)-1H-pyrazol-4-yl]-7-(6,7-dihydro-5H-imidazo[2,1-c][1,2,4]triazol-3-yl)-1,5-naphthyridine]
[1]
  IC50: 200 to 1260 nM
[2]
  Ki: 0.0398 to 0.316 nM

## Fc1ccc(Cl)cc1-c1n[nH]cc1-c1ccc2ncc(-c3cn(Cc4c[nH]cn4)nn3)cc2n1 [Compound 1-111, 2-[3-(5-chloro-2-fluoro-phenyl)-1H-pyrazol-4-yl]-7-[1-(1H-imidazol-4-ylmethyl)triazol-4-yl]-1,5-naphthyridine]
[1]
  IC50: 25.1 to 158 nM
[2]
  Ki: ≤ 0.0316 nM

## Fc1ccc(Cl)cc1-c1n[nH]cc1-c1ccc2ncc(-c3cn(Cc4cnc5c(c4)CNCC5)nn3)cc2n1 [Compound 1-112, 2-[3-(5-chloro-2-fluoro-phenyl)-1H-pyrazol-4-yl]-7-[1-(5,6,7,8-tetrahydro-1,6-naphthyridin-3-ylmethyl)triazol-4-yl]-1,5-naphthyridine]
[1]
  IC50: 25.1 to 158 nM
[2]
  Ki: 0.0398 to 0.316 nM

## Fc1ccc(Cl)cc1-c1n[nH]cc1-c1ccc2ncc(-c3ncn4c3CNCC4)cc2n1 [Compound 1-113, 2-[3-(5-chloro-2-fluoro-phenyl)-1H-pyrazol-4-yl]-7-(5,6,7,8-tetrahydroimidazo[1,5-a]pyrazin-1-yl)-1,5-naphthyridine]
[1]
  IC50: 25.1 to 158 nM
[2]
  Ki: 0.0398 to 0.316 nM

## Fc1ccc(Cl)cc1-c1n[nH]cc1-c1ccc2ncc(-c3ncc4n3CCNC4)cc2n1 [Compound 1-114, 2-[3-(5-chloro-2-fluoro-phenyl)-1H-pyrazol-4-yl]-7-(5,6,7,8-tetrahydroimidazo[1,5-a]pyrazin-3-yl)-1,5-naphthyridine]
[1]
  IC50: 25.1 to 158 nM
[2]
  Ki: 0.0398 to 0.316 nM
